{"source": "ChEMBL document CHEMBL1255395", "about": "“Laninamivir prodrug CS-8958, a long-acting neuraminidase inhibitor, shows superior anti-influenza virus activity after a single administration” (Antimicrob Agents Chemother, 2010)", "experiment": "Half life in human", "assay_type": "ADME, organism-based", "conditions": "in vivo", "data": [{"smiles": "CC(=O)N[C@H]1[C@H]([C@H](O)[C@H](O)CO)OC(C(=O)O)=C[C@@H]1N=C(N)N", "note": "[ZANAMIVIR]", "values": [{"measurement": "half-life", "value": 2.8, "unit": "h"}]}]}
